Measured values reported in ChEMBL document CHEMBL5126517, “Structure-Activity Relationship in the Leucettine Family of Kinase Inhibitors” (J Med Chem, 2022).
Calls of active or inactive are those of the source.

What was measured:
[1] = target: Dual specificity tyrosine-phosphorylation-regulated kinase 1B (Homo sapiens, UniProt Q9Y463)
[2] = target: T1, Cannabinoid receptor 1 (Homo sapiens, UniProt P21554); assay: Antagonist activity at CP-55940-activated CB1 receptor (unknown origin) at 10 uM by beta-arrestin assay relative to control; format: functional; set-up: scale not given: the % may be the effect or the level left; conditions: filed as antagonist
[3] = target: Dual specificity protein kinase CLK1 (Mus musculus, UniProt P22518); assay: Inhibition of GST-fused mouse recombinant CLK1 expressed in Escherichia coli using GRSRSRSRSRSR peptide as substrate incubated for 30 mins in presence of ATP by scintillation counting method
[4] = test system: HT-22; assay: Neuroprotective activity against glutamate-induced cell death in mouse HT-22 cells treated for 24 hrs by MTS assay; format: functional, cell-based; conditions: HT-22, 24 h
[5] = Neurotoxicity against mouse HT-22 cells assessed as cell survival at 10 uM treated for 24 hrs by MTS assay; format: toxicity, cell-based; conditions: ht-22, 24 h
[6] = target: Dual specificity tyrosine-phosphorylation-regulated kinase 1A (Homo sapiens, UniProt Q13627); assay: Inhibition of GST-fused human recombinant DYRK1A expressed in Escherichia coli using GRSRSRSRSRSR peptide as substrate incubated for 30 mins in presence of ATP by scintillation counting method
[7] = target: T2, Dual specificity tyrosine-phosphorylation-regulated kinase 2 (Homo sapiens, UniProt Q92630); assay: Inhibition of GST-fused human recombinant DYRK2 expressed in Escherichia coli using GRSRSRSRSRSR peptide as substrate incubated for 30 mins in presence of ATP by scintillation counting method
T2 sequence (Q92630 whole entry): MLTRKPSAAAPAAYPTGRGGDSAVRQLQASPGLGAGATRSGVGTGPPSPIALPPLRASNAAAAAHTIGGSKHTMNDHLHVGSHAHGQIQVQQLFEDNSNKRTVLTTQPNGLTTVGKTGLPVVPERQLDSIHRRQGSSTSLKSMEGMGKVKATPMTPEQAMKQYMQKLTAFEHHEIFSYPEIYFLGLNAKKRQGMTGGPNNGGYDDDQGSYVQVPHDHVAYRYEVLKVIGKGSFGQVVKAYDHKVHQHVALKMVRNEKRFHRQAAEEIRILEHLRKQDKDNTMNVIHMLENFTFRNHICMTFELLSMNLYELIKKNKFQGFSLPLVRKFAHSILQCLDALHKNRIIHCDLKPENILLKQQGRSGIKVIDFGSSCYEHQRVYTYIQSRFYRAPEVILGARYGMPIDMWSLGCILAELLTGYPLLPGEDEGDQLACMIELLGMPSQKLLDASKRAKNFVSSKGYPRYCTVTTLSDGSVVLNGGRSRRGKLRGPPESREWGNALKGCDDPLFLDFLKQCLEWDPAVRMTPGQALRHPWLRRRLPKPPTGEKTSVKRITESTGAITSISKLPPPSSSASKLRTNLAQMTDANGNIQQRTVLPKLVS

[8] = target: Dual specificity protein kinase CLK2 (Mus musculus, UniProt O35491); assay: Inhibition of mouse recombinant GST-fused CLK2 expressed in Escherichia coli using GRSRSRSRSRSR peptide as substrate incubated for 30 mins in presence of ATP by scintillation counting method
[9] = target: T1, Cannabinoid receptor 1; assay: Antagonist activity at CP-55940-activated CB1 receptor (unknown origin) by beta-arrestin assay; format: functional
[10] = target: Dual specificity protein kinase CLK4 (Mus musculus, UniProt O35493); assay: Inhibition of GST-fused mouse recombinant CLK4 expressed in Escherichia coli using GRSRSRSRSRSR peptide as substrate incubated for 30 mins in presence of ATP by scintillation counting method
[11] = test system: U2OS; assay: Induction of PI3K/mTor-dependent autophagy in human U2OS cells assessed as number of LC3 foci per cell at 10 uM measured after 4 hrs; format: cell-based; conditions: filed as activator
[12] = target: T3, Dual specificity tyrosine-phosphorylation-regulated kinase 3 (Homo sapiens, UniProt O43781); assay: Inhibition of GST-fused human recombinant DYRK3 expressed in Escherichia coli using GRSRSRSRSRSR peptide as substrate incubated for 30 mins in presence of ATP by scintillation counting method
T3 sequence (O43781 whole entry): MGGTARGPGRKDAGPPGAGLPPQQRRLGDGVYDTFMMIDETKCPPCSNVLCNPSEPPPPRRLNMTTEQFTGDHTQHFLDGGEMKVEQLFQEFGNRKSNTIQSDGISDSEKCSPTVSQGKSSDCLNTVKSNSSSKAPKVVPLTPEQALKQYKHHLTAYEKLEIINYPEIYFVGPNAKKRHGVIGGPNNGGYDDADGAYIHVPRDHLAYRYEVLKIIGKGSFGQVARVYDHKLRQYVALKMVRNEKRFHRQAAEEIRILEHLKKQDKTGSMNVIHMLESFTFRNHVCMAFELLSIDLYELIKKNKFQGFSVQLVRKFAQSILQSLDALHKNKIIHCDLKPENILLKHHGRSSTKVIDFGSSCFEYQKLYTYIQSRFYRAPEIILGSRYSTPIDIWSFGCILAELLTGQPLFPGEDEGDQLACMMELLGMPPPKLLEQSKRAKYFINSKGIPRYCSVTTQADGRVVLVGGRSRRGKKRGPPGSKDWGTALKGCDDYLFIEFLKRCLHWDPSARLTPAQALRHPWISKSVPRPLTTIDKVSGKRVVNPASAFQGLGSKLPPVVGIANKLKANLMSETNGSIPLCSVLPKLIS

[13] = target: Glycogen synthase kinase-3 (Sus scrofa, UniProt B2LUN4+I6LNT8); assay: Inhibition of porcine brain GSK-3alpha/beta using YRRAAVPPSPSLSRHSSPHQpSEDEEE as substrate incubated for 30 mins in presence of ATP by scintillation counting method; format: tissue-based
[14] = target: Serine/threonine-protein kinase pim-1 (Homo sapiens, UniProt P11309); assay: Inhibition of human recombinant Pim1 expressed in Escherichia coli using histone H1 as substrate incubated for 30 mins in presence of ATP by scintillation counting method
[15] = test system: HT-22; assay: Induction of PI3K/mTor-dependent autophagy in mouse HT-22 cells assessed as number of LC3 foci per cell at 10 uM incubated for 24 hrs using Lamp-1 staining based immunofluorescence microscopy; conditions: filed as activator
[16] = Reduction in phosphorylated Tau Thr212 residue in wild-type C57BL/6J mouse brain dosed at 20 mg/kg/day, ip for 19 days by western blot analysis; format: toxicity, organism-based; conditions: in vivo, 456 h, time 19 day
[17] = test system: Mus musculus; assay: Reduction in phosphorylated Tau Thr212 residue in Tg(Dyrk1a) mutant C57BL/6J mouse brain dosed at 20 mg/kg/day, ip for 19 days by western blot analysis; format: functional, organism-based; conditions: time 19.0 day
[18] = test system: HT-22; assay: Modulation of CLK1 pre-mRNA splicing in mouse HT-22 cells assessed as maximal effect of CLK1 exon 4 inclusion measured after 3 hrs by qPCR analysis; format: functional, cell-based
[19] = test system: HT-22; assay: Induction of PI3K/mTor-dependent autophagy in mouse HT-22 cells assessed as number of LC3 foci per cell at 10 uM incubated for 24 hrs using Anti-LC3 staining based immunofluorescence microscopy; conditions: filed as activator
[20] = test system: HT-22; assay: Modulation of CLK1 pre-mRNA splicing in mouse HT-22 cells assessed as inclusion of CLK1 exon 4 by measuring change in threshold cycle at 10 uM measured after 4 hrs by real time PCR analysis; format: cell-based; conditions: filed as modulator
[21] = target: Casein kinase 2 (Homo sapiens, UniProt P67870+P68400+P19784+Q8NEV1); assay: Inhibition of human recombinant CK2 using RRRDDDSDDD peptide as substrate incubated for 30 mins in presence of ATP by scintillation counting method; format: protein assay
[22] = Neurotoxicity against mouse HT-22 cells assessed as cell survival at 20 uM treated for 24 hrs by MTS assay; format: toxicity, cell-based; conditions: ht-22, 24 h
[23] = test system: HT-22; assay: Neuroprotective activity against glutamate-induced cell death in mouse HT-22 cells at 10 uM incubated for 24 hrs by phase contrast microscopy; format: functional, cell-based
[24] = target: T1, Cannabinoid receptor 1; assay: Displacement of [3H]-CP55940 from CB1 receptor (unknown origin) expressed in HEK293 cell membrane assessed as dissociation constant at 10 uM by liquid scintillation counting method; format: cell membranes; conditions: filed as modulator
[25] = test system: HT-22; conditions: Mus musculus, filed as modulator, dose 10.0 µM, time 6.0 hrs
[26] = Neurotoxicity against mouse HT-22 cells assessed as cell survival treated for 24 hrs by MTS assay; format: toxicity, cell-based
[27] = target: T1, Cannabinoid receptor 1; assay: […] allosteric modulation of CB1 receptor (unknown origin) expressed in HEK293 cell membrane assessed as inhibition of CP-55940-induced [35S]-GTPgammaS binding at 10 uM in presence of GDP by liquid scintillation counting method; format: functional, cell membranes; conditions: DDE = dose-dependent effect

T1 sequence (P21554 whole entry, the tested form may be a part): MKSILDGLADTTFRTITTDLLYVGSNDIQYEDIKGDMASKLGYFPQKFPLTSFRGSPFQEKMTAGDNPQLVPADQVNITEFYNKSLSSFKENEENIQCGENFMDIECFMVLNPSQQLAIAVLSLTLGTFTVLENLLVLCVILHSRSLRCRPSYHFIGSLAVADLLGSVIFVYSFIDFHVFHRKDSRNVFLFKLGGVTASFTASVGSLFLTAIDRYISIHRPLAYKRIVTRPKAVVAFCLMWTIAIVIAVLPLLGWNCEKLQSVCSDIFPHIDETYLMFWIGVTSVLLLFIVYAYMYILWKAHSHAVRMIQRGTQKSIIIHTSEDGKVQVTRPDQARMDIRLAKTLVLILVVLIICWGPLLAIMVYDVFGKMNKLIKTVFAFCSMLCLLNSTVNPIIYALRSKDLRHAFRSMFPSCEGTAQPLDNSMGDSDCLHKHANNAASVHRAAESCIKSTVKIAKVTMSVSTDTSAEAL
Chain of Serine/threonine-protein kinase pim-1 (P11309 whole entry): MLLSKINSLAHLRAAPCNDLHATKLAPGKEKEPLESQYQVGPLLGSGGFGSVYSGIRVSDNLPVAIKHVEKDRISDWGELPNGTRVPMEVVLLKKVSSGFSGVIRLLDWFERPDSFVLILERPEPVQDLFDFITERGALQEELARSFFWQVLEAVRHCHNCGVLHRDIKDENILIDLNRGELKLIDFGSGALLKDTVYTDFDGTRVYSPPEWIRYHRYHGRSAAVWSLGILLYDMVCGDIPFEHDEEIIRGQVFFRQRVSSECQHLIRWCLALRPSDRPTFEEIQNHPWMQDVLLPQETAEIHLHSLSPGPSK
Chain of Dual specificity protein kinase CLK4 (O35493 whole entry, the tested form may be a part): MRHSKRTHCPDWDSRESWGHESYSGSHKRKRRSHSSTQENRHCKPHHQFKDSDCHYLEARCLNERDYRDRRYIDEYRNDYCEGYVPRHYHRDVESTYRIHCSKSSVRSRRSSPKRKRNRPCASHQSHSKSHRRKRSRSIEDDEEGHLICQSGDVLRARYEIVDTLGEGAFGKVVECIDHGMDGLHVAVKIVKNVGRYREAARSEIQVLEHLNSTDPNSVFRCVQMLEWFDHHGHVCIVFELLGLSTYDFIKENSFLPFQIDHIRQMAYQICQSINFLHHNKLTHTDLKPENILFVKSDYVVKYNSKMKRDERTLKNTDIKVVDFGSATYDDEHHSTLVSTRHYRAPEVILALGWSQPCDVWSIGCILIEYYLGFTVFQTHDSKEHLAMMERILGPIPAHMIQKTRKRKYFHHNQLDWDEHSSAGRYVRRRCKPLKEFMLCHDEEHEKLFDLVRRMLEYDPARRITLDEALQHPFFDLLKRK
Chain of Dual specificity protein kinase CLK1 (P22518 whole entry, the tested form may be a part): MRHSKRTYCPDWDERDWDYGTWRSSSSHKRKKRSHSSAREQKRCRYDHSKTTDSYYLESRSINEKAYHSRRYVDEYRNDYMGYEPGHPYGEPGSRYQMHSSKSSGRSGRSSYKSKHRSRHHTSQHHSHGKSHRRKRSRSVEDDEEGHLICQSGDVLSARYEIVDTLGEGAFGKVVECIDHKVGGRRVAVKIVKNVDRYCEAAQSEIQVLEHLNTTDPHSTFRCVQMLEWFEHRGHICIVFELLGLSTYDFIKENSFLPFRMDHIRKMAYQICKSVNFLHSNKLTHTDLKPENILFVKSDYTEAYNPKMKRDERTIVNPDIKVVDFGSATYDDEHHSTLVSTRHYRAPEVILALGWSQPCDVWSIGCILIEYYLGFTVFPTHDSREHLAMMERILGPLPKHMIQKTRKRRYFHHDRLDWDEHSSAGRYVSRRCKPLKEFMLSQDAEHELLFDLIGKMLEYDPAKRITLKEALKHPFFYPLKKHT
Chain of Dual specificity tyrosine-phosphorylation-regulated kinase 1B (Q9Y463 whole entry): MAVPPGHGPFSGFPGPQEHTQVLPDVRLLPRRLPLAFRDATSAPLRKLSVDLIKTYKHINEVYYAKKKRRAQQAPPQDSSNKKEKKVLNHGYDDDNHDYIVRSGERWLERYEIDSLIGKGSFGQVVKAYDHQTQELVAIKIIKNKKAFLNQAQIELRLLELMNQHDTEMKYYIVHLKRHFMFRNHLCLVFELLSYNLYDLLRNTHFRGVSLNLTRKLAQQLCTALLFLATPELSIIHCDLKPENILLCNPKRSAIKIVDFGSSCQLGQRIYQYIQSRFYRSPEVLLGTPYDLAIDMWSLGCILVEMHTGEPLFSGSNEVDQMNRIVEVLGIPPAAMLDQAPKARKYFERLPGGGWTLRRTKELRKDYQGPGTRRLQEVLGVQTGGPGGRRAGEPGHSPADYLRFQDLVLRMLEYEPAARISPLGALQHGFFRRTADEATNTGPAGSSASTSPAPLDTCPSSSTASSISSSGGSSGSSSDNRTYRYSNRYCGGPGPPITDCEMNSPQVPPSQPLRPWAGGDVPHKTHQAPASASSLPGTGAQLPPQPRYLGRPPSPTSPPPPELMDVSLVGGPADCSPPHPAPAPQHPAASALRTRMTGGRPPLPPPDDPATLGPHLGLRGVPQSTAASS
Chain of Dual specificity protein kinase CLK2 (O35491 whole entry, the tested form may be a part): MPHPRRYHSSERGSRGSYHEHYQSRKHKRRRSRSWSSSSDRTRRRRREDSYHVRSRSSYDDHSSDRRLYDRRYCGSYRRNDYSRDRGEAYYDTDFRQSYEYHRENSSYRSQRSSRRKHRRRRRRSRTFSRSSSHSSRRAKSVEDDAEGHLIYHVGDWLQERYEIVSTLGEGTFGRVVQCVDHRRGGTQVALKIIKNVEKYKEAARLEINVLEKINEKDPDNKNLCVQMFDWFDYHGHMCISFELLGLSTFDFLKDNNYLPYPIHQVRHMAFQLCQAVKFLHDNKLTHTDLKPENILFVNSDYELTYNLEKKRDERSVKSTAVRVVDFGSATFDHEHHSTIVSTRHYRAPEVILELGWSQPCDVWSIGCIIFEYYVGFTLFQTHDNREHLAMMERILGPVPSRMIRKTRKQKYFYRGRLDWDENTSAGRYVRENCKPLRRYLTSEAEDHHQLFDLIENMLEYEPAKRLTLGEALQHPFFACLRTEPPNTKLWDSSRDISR

COc1cc(/C=C2\N=C(Nc3ccc(N4CCCCC4)cc3)NC2=O)ccc1O
IC50 [1]: 410 nM
Activity [2]: 84.1%
IC50 [3]: 750 nM
EC50 [4]: 1.35 µM
Activity [5]: Non-Toxic
IC50 [6]: 280 nM
IC50 [7]: 410 nM
IC50 [8]: > 10 µM
IC50 [9]: 297 nM
IC50 [10]: 1200 nM
Activity [11]: 10.9
IC50 [12]: 300 nM
IC50 [13]: > 10 µM
IC50 [14]: 6.3 µM

O=C1NC(Nc2ccccc2)=N/C1=C\c1ccc2c(c1)OCO2
Activity [15]: Active
Activity [16]: Non-Toxic
Activity [17]: Active
Activity [2]: 96.8%
Activity ([2]; tested as the 2H-labelled form): 92.7%
Activity [18]: Active
Activity [19]: Active
EC50 [4]: 6.02 µM
deltaCT [20]: 8.18
deltaCT ([20]; tested as the 2H-labelled form): 7.71
IC50 [21]: 0.51 µM
Activity [22]: Non-Toxic
Activity [23]: Active
Activity [11]: 11.6
Activity ([11]; tested as the 2H-labelled form): 7.3
Kb [24]: 2200 nM
IC50 [13]: 0.6 µM
deltaCT [25]: 8.18
IC50 at 24 h [26]: > 20 µM
Activity [27]: Dde
